Reference: patent publication US10286000B2, “Retinoid X receptor-gamma agonists and retinoid X receptor-alpha antagonists for treatment of cancer” (St. Jude Children's Research Hospital, Inc., priority 2013, dated 2019)

How the values were obtained:
[1] = test system: MMP-1, 7, 10, 12, and 13 in CAL27 cells; test: RT-qPCR of MMP mRNA; type: cell-based, human; details: 3 days
Description: Data were normalized to GAPDH mRNA levels and presented as fold change relative to the mRNA expression in DMSO treated cells (n=3). * P<0.005, ** P<0.001.

[2] = test system: colon cancer cell lines (NKL or primary NK cells as effectors); test: NK cell cytotoxicity assay (BATDA release); type: cell-based, human
Experimental: (A) NKL cells express high level of NKG2D but not NKp30 on their cell surface as determined by flow cytometry. Results are representative of two independent experiments. Therefore, the use of anti-NKp30 in NKL killing assay described in 2 F below was considered as a non-specific IgG blockade relative to anti-NKG2D. […] (D) HCT116 cells transduced with control or a ULBP2-overexpressing lentiviral construct were analyzed by flow cytometry for the surface expression of ULBP2. Results are representative of two independent experiments. (E) NK cell cytotoxicity on the ULBP2-transduced HCT116 cells was determined by a BATDA release assay using NKL cells as effector cells (n=3). (F) DMSO- or SPIR-treated (3 days) HCT116 cells were subjected to a BATDA release assay using NKL cells in the presence or absence of anti-NKp30 or anti-NKG2D antibodies (10 μg/mL) (n=3). (G) DMSO- or SPIR-treated (3 days) HCT116 cells were subjected to a BATDA release assay using IL-2 (10 U/ml)-primed primary NK cells isolated from healthy donors at various E:T ratios in the presence or absence of anti-NKp30 or anti-NKG2D antibodies (10 μg/mL) (n=3). * P<0.05, ** P<0.005, *** P<0.0001.
The results were calculated as follows: […]

[3] = test system: Chk1 (Ser-317 phosphorylation); test: Phospho-Chk1 ELISA; type: cell-based, human; details: HCT116, 0 h to 24 h
Experimental: Ser-317 phosphorylation of Chk1 was determined by using the PathScan phosphor-Chk1 (Ser317) Sandwich ELISA kit (Cell Signaling). Data were normalized to the total Chk1 levels obtained from an ELISA with anti-Chk1 (total) used as the detection antibody.

[4] = test system: ULBP2 surface expression in 293T cells; test: high-throughput screening of 5600 bioactive compounds, ULBP2 surface expression; type: cell-based, human
[5] = test system: ULBP2 in MR-knockdown 293T cells; test: ULBP2 surface expression in MR-knockdown 293T cells; type: cell-based, human
Experimental: (A) MR mRNA expression was determined by qRT-PCR in various cell lines (n=3). (B) MR protein expression was determined by Western blot analysis. Data shown are representative of two independent experiments. (C) MR-knockdown 293T cells were generated by lentiviral transduction with an shRNA vector (pLKO.1) targeting MR. The relative mRNA expression of MR was analyzed by qRT-PCR (n=3). […] Data shown are representative of two independent experiments. * P<0.0001.

[6] = test system: normal human lymphocytes; test: normal human lymphocytes: viability and NKG2DL expression; type: cell-based
[7] = test system: DNA damage in HCT116 cells; test: comet assay; type: cell-based, human
Experimental: Experiments were performed according to the manufacturer's instructions.

[8] = test system: NKG2DL (MICA-B, ULBP1-3) surface expression; test: flow cytometry of NKG2DL cell surface expression in cancer cell lines; type: cell-based, human
Experimental: Data are representative of five independent experiments. […] Controls were stained with APC-conjugated anti-human Fc antibody alone without preincubation with NKG2D-Fc. Data are representative of three independent experiments. […] Results are representative of two independent experiments. […] (E) NKG2DL mRNA expression in the colon cancer cell lines was analyzed by qRT-PCR analysis. Data are normalized to GAPDH mRNA levels and are presented as fold-change relative to the expression in DMSO-treated cells (n=5). (F) Lentiviral-based luciferase reporter construct containing the putative ULBP2 promoter (−2415 to 0 bp from the transcription start site: 73 bp upstream of ATG) was transduced into the colon cancer cell lines. Positively transduced cells were selected by puromycin treatment (2 μg/ml) for 2 weeks. […] Data shown are expressed as fold-change relative to the luciferase activity observed in DMSO-treated cells (n=3). * P<0.05, ** P<0.01.
Cell lines were stained with allophycocyanin-conjugated anti-MICA, anti-MICB, or anti-ULBP2 antibodies for 20 min at 4° C. For ULBP1 and ULBP3 staining, cells were first incubated with anti-ULBP1 and anti-ULBP3 antibodies and then with allophycocyanin-conjugated goat anti-mouse IgG antibody. To analyze total NKG2DL cell surface expression, cells were first incubated with human NKG2D-Fc for 20 min at 4° C. and then with allophycocyanin-conjugated mouse anti-human IgG (Fc) antibody. Cells were washed and analyzed on a C6 flow cytometer (Accuri). Data were analyzed using FlowJo software (TreeStar).

Structure (SMILES): CC(=O)S[C@@H]1CC2=CC(=O)CC[C@]2(C)[C@H]2CC[C@@]3(C)[C@@H](CC[C@@]34CCC(=O)O4)[C@H]12 [SPIR, spironolactone]
- expression of Matrix Metalloproteinases (MMP-1, MMP-7, MMP-10, MMP-12, MMP-13) [1]: downregulates expression
- susceptibility to primary NK cell-mediated lysis ([2]; HT29 and SW480 cells, IL-2-primed primary NK cells): markedly enhanced
- susceptibility to NKL lysis ([2]; all colon cancer cell lines, SPIR 56 μM): significantly increased
- Ser-317 phosphorylation of Chk1 (P-Chk1) [3]: time-dependent increase
- surface expression of ULBP2 [4]: significantly increased
- upregulation of ULBP2 upon SPIR treatment with shRNA knockdown of MR [5]: did not affect the upregulation of ULBP2
- viability or NKG2DL expression of normal human lymphocytes [6]: no detrimental effect
- DNA breakage ([7]; HCT116, 56 μM for 24 h): moderate decrease in DNA breakage
- genotoxicity ([7]; conclusion from comet assays): not genotoxic
- ULBP2 expression ([8]; HCT116, HT29, SW480, HCT15, SPIR 56 μM, 3 days, dose-dependent): significantly increased
- expression of other NK cell ligands (CD112, CD155, Fas, HLAs) ([8]; HCT116 cells, 56 μM, 3 days): no increase in expression
- ULBP1 expression ([8]; SW480 and HCT15 cells): selective increase
- MICA/B and ULBP3 expression ([8]; all SPIR-treated cells): enhancement
- total NKG2DL expression by soluble NKG2D-Fc staining ([8]; colon cancer cell lines): Consistent NKG2DL upregulation
- viability of the cells ([8]; colon cancer cell lines, SPIR treatment): without affecting the viability of the cells
